# Assay results as given in ChEMBL document CHEMBL1201862, “PubChem BioAssay data set” (2004).
# Calls of active or inactive are those of the source.
# Assays:
# [1] = biological target: Glyceraldehyde-3-phosphate dehydrogenase (Homo sapiens, UniProt P04406)
# [2] = A Cell Based Secondary Assay To Explore Cytotoxicity of Compounds that Sensitize Mycobacterium Tuberculosis to Beta-Lactam Antibiotics.; type: functional
# Mucolipin-3 = biological target: T1, Mucolipin-3 (Homo sapiens, UniProt Q8TDD5); assay: Dose response cell-based high-throughput screening assay for agonists of the transient receptor potential channel ML3 (TRPML3). [Related pubchem assays: 1526, 1424, 1448 ]; type: functional
# T1 sequence (Q8TDD5 whole entry): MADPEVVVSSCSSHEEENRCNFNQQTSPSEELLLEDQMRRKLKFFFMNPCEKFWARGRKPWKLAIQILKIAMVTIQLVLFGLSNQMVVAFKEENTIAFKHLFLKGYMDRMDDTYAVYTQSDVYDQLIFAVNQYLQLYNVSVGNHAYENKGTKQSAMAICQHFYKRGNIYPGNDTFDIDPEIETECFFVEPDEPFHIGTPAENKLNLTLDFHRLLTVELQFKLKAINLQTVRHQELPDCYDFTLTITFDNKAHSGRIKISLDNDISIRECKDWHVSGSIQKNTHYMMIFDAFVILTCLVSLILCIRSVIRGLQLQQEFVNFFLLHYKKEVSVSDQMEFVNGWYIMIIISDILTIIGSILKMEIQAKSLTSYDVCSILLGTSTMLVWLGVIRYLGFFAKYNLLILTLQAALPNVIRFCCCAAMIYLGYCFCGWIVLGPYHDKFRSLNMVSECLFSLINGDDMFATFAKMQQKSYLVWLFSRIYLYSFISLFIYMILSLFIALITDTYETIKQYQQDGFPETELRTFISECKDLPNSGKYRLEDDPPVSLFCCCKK
# Ion channel NompC = Ion channel NompC (Danio rerio, UniProt Q7T1G6); assay: Fluorescence counterscreen assay for TRPML3 agonists: dose response cell-based high-throughput screening assay to identify agonists of the transient receptor potential channel N1 (TRPN1). [Related pubchem assays: 1526, 1424, 1448 ]; type: functional
# [3] = biological target: T2, Mannose-6-phosphate isomerase (Homo sapiens, UniProt P34949); assay: MPI enzyme activity inhibition – biochemical, fluorescence intensity, coupled assay, primary screen (AID 1209)
# T2 sequence (P34949 whole entry): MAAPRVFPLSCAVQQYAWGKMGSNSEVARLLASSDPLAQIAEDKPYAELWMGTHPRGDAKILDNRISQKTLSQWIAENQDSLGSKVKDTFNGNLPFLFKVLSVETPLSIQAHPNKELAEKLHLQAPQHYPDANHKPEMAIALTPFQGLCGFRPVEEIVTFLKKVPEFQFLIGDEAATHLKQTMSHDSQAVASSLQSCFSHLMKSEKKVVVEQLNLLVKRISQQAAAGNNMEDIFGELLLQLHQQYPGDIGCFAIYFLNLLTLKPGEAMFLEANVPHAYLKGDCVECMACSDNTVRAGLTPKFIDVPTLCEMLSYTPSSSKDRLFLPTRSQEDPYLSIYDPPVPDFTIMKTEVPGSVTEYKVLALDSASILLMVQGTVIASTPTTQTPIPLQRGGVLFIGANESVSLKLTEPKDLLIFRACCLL
# [4] = biological target: Peroxisome proliferator-activated receptor gamma/Nuclear receptor coactivator 3 (Homo sapiens, UniProt P37231); type: functional;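 also: agonist potency for raising coactivator recruitment to the receptor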
# Peroxisome proliferator-activated receptor gamma/Nuclear receptor coactivator 3, sequence (P37231 whole entry): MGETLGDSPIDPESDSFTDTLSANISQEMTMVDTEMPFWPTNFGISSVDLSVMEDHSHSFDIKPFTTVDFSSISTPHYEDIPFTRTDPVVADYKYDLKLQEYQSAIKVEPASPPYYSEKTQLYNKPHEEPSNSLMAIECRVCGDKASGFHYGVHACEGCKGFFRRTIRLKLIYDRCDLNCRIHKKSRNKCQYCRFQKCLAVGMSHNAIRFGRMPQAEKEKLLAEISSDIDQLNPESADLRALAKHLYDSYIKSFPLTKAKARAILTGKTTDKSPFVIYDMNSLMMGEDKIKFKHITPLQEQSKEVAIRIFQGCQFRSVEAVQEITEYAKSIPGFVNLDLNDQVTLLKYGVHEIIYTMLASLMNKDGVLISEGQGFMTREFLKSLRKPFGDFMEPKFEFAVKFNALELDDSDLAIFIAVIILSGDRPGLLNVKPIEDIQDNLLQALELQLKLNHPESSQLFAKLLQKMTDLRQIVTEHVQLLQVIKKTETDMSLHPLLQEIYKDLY
# Peroxisome proliferator-activated receptor gamma/Nuclear receptor coactivator 3, sequence (Q9Y6Q9 whole entry, further chain): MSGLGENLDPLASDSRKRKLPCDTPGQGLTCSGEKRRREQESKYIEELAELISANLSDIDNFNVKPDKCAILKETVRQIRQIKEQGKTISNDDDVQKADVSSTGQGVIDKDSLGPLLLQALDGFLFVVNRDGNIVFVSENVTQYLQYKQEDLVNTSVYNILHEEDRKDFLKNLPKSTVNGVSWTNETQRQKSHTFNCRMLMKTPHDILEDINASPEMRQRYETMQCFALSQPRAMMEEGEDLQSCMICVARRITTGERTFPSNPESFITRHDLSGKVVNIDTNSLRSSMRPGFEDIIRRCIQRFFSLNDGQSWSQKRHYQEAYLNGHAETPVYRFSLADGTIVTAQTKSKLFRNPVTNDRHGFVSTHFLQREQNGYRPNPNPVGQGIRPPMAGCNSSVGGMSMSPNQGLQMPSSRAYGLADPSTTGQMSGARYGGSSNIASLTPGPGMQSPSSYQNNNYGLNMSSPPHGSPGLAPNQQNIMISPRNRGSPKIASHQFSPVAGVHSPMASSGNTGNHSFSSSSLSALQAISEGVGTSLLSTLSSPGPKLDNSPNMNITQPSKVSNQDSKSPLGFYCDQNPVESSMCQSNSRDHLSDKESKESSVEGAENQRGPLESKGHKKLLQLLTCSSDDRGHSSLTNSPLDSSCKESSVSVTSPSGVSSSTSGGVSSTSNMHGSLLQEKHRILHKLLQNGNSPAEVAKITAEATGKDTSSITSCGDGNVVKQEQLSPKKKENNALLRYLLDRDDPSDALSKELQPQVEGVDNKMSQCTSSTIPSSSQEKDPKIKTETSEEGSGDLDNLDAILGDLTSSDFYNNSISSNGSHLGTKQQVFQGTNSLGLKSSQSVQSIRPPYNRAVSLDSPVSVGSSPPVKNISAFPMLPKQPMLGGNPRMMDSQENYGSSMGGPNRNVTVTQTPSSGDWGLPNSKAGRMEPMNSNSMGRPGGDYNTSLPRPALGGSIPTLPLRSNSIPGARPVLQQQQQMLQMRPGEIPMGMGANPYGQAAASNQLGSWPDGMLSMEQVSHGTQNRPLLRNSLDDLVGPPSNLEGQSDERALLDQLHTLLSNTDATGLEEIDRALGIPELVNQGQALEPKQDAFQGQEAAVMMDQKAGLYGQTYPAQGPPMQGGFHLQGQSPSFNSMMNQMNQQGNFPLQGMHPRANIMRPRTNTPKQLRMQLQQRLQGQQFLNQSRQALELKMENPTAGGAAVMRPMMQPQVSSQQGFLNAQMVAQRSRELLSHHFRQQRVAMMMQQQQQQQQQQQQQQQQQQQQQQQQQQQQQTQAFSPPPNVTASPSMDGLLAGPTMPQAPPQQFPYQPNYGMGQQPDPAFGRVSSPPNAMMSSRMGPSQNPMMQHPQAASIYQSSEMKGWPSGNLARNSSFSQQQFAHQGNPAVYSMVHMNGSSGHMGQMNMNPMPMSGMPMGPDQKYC
# [5] = biological target: Peroxisome proliferator-activated receptor gamma/Nuclear receptor coactivator 1 (Homo sapiens, UniProt P37231); type: functional;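 also: agonist potency as compounds enhance coactivator SRC-1 recruitment to PPARgamma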
# [6] = biological target: Peroxisome proliferator-activated receptor gamma/Nuclear receptor coactivator 2 (Homo sapiens, UniProt P37231); type: functional;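 also: agonist potency for raising coactivator recruitment to the receptor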
# Peroxisome proliferator-activated receptor gamma/Nuclear receptor coactivator 2, sequence (P37231 whole entry): as the sequence (P37231 whole entry) above
# Peroxisome proliferator-activated receptor gamma/Nuclear receptor coactivator 2, sequence (Q15596 whole entry, further chain): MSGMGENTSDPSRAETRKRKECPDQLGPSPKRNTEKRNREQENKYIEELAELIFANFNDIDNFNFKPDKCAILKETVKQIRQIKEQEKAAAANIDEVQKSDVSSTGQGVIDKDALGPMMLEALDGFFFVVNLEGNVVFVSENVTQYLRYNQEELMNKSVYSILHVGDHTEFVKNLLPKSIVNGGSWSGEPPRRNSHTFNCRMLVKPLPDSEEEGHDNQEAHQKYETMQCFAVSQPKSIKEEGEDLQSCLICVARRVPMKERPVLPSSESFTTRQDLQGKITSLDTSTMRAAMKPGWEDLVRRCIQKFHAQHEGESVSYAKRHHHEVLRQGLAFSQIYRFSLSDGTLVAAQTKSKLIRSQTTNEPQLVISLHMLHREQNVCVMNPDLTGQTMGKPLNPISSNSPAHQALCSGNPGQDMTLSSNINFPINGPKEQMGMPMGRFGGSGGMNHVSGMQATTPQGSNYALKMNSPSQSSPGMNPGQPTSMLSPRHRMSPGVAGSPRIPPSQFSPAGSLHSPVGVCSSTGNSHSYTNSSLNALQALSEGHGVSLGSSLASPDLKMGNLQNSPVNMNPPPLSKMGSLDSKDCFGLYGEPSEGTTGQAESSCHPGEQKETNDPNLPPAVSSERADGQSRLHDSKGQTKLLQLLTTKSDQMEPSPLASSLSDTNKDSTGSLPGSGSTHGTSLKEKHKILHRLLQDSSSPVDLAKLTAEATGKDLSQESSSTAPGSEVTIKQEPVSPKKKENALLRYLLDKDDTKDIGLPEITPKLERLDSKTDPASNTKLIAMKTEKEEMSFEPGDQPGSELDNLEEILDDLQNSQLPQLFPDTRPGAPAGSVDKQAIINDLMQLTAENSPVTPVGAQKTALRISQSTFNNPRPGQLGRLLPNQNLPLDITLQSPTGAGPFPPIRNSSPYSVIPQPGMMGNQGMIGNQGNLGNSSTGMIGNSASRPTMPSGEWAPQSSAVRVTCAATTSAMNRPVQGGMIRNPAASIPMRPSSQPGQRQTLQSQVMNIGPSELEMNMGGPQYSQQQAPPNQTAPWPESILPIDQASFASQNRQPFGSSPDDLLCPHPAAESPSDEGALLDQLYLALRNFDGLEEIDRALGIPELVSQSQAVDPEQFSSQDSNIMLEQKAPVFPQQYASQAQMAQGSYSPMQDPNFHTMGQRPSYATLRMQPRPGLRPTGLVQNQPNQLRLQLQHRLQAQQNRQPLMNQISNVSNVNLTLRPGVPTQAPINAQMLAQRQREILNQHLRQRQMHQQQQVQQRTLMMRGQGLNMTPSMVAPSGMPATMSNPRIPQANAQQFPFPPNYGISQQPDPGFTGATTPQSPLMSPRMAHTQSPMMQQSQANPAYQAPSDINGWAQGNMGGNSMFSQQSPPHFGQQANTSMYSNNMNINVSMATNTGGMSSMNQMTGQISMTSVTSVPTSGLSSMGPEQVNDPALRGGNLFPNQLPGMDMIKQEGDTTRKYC
# [7] = luciferase reporter signal suppression in cells – H4 neuroglioma cells, luminescence, dose response (AID 1990); type: functional, cell-based
# [8] = luciferase reporter signal reduction – luminescence, H4-C neuroglioblastoma cells, dose response (AID 2458); type: functional, cell-based;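 also: H4 neuroglioblastoma cells stably carrying a luciferase reporter gene fusion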
# [9] = Luminescence Cell-Based Dose Response HTS to Identify Inhibitors of 5'UTR Stem-Loop Driven Prion Protein mRNA Translation in H4 Neuroglioblastoma Cells. [Related pubchem assays: 1827 (Project Summary), 1813 (Primary HTS)]; type: functional
# [10] = alpha-synuclein stem-loop translation blockers – luminescence, H4 neuroglioblastoma cells, dose confirmation, confirmation (AID 2454); type: functional, cell-based;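 also: H4 neuroglioblastoma cells carrying an alpha-synuclein 5'UTR luciferase reporter; potency for inhibition of the luciferase signal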
# cells = type: functional, cell-based
# [11] = alpha-synuclein stem-loop luciferase translation blockers – H4 neuroglioma cells, luminescence, confirmation (AID 1988); type: functional, cell-based
# [12] = biological target: T3, Sentrin-specific protease 8 (Homo sapiens, UniProt Q96LD8); type: functional;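 also: luminescence read-out of SENP8 inhibition, dose-response confirmation following an ultra-high-throughput screen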
# T3 sequence (Q96LD8 whole entry): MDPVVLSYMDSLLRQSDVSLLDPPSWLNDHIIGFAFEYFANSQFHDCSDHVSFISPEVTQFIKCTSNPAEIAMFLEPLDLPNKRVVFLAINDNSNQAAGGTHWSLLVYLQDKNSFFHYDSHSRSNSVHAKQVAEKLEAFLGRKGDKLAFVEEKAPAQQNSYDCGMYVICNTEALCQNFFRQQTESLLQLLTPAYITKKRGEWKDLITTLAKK
# Caspase-3 = biological target: T4, Caspase-3 (Homo sapiens, UniProt P42574); type: functional;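 also: Dose-response selectivity test against caspase-3 for candidate inhibitors of sentrin-specific proteases (SENPs)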
# T4 sequence (P42574 whole entry): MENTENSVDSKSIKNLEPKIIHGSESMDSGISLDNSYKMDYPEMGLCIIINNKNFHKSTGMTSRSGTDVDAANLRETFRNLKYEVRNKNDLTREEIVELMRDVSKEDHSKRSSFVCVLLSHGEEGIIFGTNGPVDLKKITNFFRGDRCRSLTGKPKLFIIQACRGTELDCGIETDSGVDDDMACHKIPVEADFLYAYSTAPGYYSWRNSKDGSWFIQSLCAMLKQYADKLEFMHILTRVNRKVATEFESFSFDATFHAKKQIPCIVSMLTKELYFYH
# [13] = biological target: T5, Sentrin-specific protease 7 (Homo sapiens, UniProt Q9BQF6); type: functional;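 also: Luminescence-based dose-response confirmation of ultra-high-throughput screening hits, measuring inhibition of SENP7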
# T5 sequence (Q9BQF6 whole entry): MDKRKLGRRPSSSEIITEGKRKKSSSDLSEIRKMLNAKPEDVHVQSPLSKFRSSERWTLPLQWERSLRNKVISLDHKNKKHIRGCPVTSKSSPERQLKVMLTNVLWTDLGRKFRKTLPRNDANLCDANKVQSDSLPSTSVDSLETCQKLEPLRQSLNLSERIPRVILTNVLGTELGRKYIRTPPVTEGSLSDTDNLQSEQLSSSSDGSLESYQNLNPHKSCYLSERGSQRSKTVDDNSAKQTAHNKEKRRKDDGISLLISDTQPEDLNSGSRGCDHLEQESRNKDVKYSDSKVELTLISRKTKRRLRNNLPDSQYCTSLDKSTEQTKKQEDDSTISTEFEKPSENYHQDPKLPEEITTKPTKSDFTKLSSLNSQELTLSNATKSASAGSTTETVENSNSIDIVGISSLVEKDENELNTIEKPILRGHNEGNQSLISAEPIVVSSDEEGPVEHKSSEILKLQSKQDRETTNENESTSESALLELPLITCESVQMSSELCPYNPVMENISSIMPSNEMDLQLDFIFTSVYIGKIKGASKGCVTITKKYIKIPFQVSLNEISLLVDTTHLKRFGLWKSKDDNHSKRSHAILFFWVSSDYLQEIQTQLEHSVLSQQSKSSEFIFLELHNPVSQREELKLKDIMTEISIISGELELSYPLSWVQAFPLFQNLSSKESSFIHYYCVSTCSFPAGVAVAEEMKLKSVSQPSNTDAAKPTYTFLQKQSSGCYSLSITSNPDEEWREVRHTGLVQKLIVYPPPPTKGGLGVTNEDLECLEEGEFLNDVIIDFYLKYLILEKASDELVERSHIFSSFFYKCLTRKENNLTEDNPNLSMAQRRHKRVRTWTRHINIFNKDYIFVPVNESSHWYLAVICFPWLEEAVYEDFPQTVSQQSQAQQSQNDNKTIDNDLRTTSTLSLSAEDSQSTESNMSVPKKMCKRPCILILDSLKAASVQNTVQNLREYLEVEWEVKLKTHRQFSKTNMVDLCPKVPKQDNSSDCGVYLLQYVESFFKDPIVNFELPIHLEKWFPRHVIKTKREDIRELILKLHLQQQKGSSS
# Prothrombin = Prothrombin (Homo sapiens, UniProt P00734); assay: Thrombin 1536 HTS Dose Response Confirmation. [Related pubchem assays: 1046 (Thrombin 1536 HTS; hits were confirmed in this assay)]; type: functional
# [14] = biological target: T6, Sentrin-specific protease 6 (Homo sapiens, UniProt Q9GZR1); type: functional;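 also: Luminescence-based dose-response confirmatory assay of SENP6 inhibition, following up an ultra-high-throughput screen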
# T6 sequence (Q9GZR1 whole entry): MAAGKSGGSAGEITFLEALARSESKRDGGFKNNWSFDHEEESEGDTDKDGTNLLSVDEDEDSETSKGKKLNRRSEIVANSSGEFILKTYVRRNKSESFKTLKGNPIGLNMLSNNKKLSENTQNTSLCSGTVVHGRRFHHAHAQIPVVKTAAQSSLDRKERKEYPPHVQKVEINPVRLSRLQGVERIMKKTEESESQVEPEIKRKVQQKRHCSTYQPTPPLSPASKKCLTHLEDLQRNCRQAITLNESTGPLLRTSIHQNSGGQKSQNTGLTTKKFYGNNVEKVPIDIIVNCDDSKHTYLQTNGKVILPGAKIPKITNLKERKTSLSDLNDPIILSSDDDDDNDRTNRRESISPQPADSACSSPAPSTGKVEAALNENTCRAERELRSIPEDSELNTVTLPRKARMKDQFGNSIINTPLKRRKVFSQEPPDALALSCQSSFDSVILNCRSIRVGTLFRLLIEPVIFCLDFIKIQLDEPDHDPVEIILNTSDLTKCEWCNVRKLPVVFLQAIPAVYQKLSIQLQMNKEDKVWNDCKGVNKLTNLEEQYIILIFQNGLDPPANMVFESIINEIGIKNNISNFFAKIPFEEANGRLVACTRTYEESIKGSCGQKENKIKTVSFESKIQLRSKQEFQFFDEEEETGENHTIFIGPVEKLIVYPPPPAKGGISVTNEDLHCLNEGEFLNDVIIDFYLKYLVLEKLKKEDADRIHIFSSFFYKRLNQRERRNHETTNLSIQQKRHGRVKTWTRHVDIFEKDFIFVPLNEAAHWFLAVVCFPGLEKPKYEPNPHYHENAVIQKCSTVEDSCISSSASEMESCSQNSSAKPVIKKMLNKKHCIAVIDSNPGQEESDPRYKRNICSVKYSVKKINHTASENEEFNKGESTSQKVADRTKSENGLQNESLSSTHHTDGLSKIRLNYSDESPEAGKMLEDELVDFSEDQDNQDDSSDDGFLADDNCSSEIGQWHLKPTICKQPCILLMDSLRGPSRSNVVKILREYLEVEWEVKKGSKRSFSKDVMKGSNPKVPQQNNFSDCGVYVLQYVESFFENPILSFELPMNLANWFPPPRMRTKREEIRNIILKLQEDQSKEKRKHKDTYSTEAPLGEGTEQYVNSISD
# [15] = HEK-293T viability loss after treatment – luminescence, T-cell screen hits, cytotoxicity control for TCR NF-kB inhibitor project, dose response (AID 489026); type: functional, cell-based;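 also: cells exposed to compound about 14 hours before the viability readout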
# BJ [16] = assay: BJ-TERT fibroblast viability loss – cell-based, RAS-independent, luminescence, dose response (AID 1933); type: functional; details: Homo sapiens
# BJ [17] = assay: BJ-TERT-LT-ST fibroblast viability loss – cell-based, RAS-independent, luminescence, dose response (AID 1935); type: functional; details: Homo sapiens;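 also: BJ fibroblasts immortalized with TERT plus LT and ST oncogenes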
# [18] = DRD fibroblast viability loss – cell-based, non-viral oncogenic, luminescence, dose response (AID 1934); type: functional; details: Homo sapiens
# BJ [19] = assay: cells; type: functional, cell-based; details: Homo sapiens
# Glyceraldehyde-3-phosphate dehydrogenase, sequence (P04406 whole entry): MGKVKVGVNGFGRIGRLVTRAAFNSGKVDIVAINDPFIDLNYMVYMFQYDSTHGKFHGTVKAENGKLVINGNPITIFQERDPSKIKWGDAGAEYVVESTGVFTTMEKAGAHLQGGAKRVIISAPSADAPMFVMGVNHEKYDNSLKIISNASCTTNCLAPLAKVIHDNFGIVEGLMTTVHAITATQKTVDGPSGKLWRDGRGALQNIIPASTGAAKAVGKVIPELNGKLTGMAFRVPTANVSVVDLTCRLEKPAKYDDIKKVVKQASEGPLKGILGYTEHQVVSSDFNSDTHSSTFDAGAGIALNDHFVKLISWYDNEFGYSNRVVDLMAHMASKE
smiles,measurement,setting,value
O=C(c1cc(-c2cc(F)c(Cl)cc2Cl)n[nH]1)N(CCO)CCO,IC50,[1],> 10 µM (inconclusive)
N#Cc1ccccc1/C=N/Nc1nc(-c2ccccc2)c2cc(Br)ccc2n1,CC50,[2],> 40 µM (active)
CN(C)S(=O)(=O)N1CCN(c2cc(Cl)ccc2Cl)CC1,EC50,Mucolipin-3,26.5 µM (not active)
same,EC50,Ion channel NompC,> 29.9 µM (not active)
O=C1COc2ccc(C(=O)/C=C/c3ccccc3)cc2N1,CC50,[2],21.5 µM (active)
Cc1ccc(N2C(=O)CC(Sc3nc[nH]n3)C2=O)cc1C (stereo not drawn),IC50,[3],> 50 µM (not active)
COc1ccc(C(=O)/N=c2\sc3ccccc3n2C)cc1OC,EC50,[4],> 79.4 µM (not active)
same,EC50,[5],> 79.4 µM (not active)
same,EC50,[6],> 79.4 µM (not active)
CCC(C)Nc1nc(N)c([N+](=O)[O-])c(NC2CCCCC2)n1 (stereo not drawn),EC50,[7],13.2 µM (active)
same,EC50,[8],> 12 µM (not active)
same,EC50,[9],< 0.1 µM (active)
same,EC50,[10],> 12 µM (not active)
same,EC50,cells,> 12 µM (not active)
same,EC50,[11],9.77 µM (active)
CCCC(=O)Oc1c(S(=O)(=O)c2ccc(C)cc2)c(C)nn1C(C)(C)C,EC50,Mucolipin-3,2.31 µM (active)
same,EC50,Ion channel NompC,> 29.9 µM (not active)
COc1cccc(/C=N/NC(=O)c2csc(-n3nc(C)cc3C(F)(F)F)n2)c1,EC50,[4],> 79.4 µM (not active)
same,EC50,[5],> 79.4 µM (not active)
same,EC50,[6],> 79.4 µM (not active)
CSc1ccccc1NC(=O)Cn1c(-c2cscn2)nc2ccccc21,EC50,[4],> 79.4 µM (not active)
same,EC50,[5],> 79.4 µM (not active)
same,EC50,[6],> 79.4 µM (not active)
O=c1[nH]c(/C=C/c2cccc(Br)c2)nc2ccccc12,CC50,[2],33.4 µM (active)
Cc1cccc(C(=O)Nc2sc(C)c(-c3ccccc3)c2C#N)c1,IC50,[12],> 100 µM (inactive)
same,IC50,Caspase-3,38.5 µM (active)
same,IC50,[13],7.15 µM (active)
same,IC50,Prothrombin,> 50 µM (not active)
same,IC50,[14],> 100 µM (inactive)
Cc1cccc(N2C(=O)C(Cl)=C(N3CCN(Cc4ccccc4)CC3)C2=O)c1,IC50,[1],> 50 µM (inconclusive)
C=CCOC(=O)c1[nH]c2c(c1C)C(=O)CC(c1ccco1)C2 (stereo not drawn),EC50,[7],0.257 µM (active)
same,EC50,[8],0.598 µM (active)
same,IC50,[15],> 80 µM (inactive)
same,EC50,[9],0.19 µM (active)
same,EC50,[10],0.822 µM (active)
same,EC50,BJ [16],0.377 µM (inconclusive)
same,EC50,BJ [17],0.346 µM (inconclusive)
same,EC50,[18],0.374 µM (active)
same,EC50,cells,1.29 µM (active)
same,EC50,BJ [19],29.1 µM (inconclusive)
same,EC50,[11],< 0.1 µM (active)
CCN(C1CCCCC1)S(=O)(=O)c1cc(C)ccc1OC,EC50,Mucolipin-3,3.39 µM (active)
same,EC50,Ion channel NompC,> 29.9 µM (not active)
CCC(Oc1cc(Cl)ccc1Cl)C(=O)NN1C(=O)C2C3CCC(C3=C(C)C)C2C1=O (stereo not drawn),EC50,Mucolipin-3,3.99 µM (active)
same,EC50,Ion channel NompC,23.7 µM (not active)
N#Cc1ccc(/C=N/NC(=N)N)cc1,EC50,[4],> 79.4 µM (not active)
same,EC50,[5],> 79.4 µM (not active)
same,EC50,[6],> 79.4 µM (not active)
